Assay results from patent US20250320496A1, “MODULATION OF ABCB11 GENE TRANSCRIPTION USING ANTISENSE OLIGONUCLEOTIDES TARGETING REGULATORY RNAS” (CAMP4 Therapeutics Corporation, priority 2022, published 2025).
Strand notation (5' to 3'): a small letter for the sugar, then the base; units joined by * are phosphorothioate-linked, units joined directly phosphodiester-linked; [ ] holds rarer units or linkages, { } end groups; capitals alone tell only the bases. e = 2'-O-(2-methoxyethyl) (MOE); l = locked nucleic acid (LNA); [5mC] = 5-methylcytosine

Columns and labels:
[1] = system: CYP7A1 mRNA; assay: ASO treatment of primary human hepatocytes (PHH), CYP7A1 mRNA by RT-qPCR normalized to B2M; assay type: cell-based; details: for CYP7A1 mRNA levels, dose response: PHHs, Day 4, relative to B2M (FIG. 5B); for expression of CYP7A1 mRNA, dose response: PHHs (FIG. 3B)
Protocol: Primary human hepatocytes (PHH) were thawed using Lonza Human Cryopreserved Hepatocyte Thawing Medium and plated in 96-well collagen-coated plates (5.5-6.0×10^4 cells per well). Four hours later, the media was replaced with sterile-filtered QualGro™ Hepatocyte Culture Medium (BioIVT) containing antibiotic supplement, 0.3 mg/ml Matrigel® matrix (Corning®), and ASO at the desired concentration (e.g., 1.25 μM, 2.5 μM, 5 μM, or 10 μM). […] Plates were frozen at-80° C. during cell lysis. After thawing, total RNA was isolated using the Qiagen RNEasy kit as instructed by manufacturer. cDNA (random-primed) was synthesized from 10 μl of RNA using the LifeTech High Capacity cDNA Reverse Transcription kit. 2 μl of cDNA was used for reverse transcription-quantitative PCR (RT-qPCR) analyses using standard Taqman” reagents from Applied Biosystems™ to measure ABCB11 and CYP7A1 gene expression. Gene expression data was normalized to the housekeeper gene, beta-2-microglobulin (B2M).
ASOs targeting ABCB11 regRNA enhance bile acid efflux in vitro. Levels of cholesterol 7 alpha-hydroxylase (CYP7A1) mRNA (or the enzymatic activity of its protein) can be used to track changes in bile acid synthesis in the liver since the CYP7A1 protein is the first and rate-limiting step in the conversion of cholesterol to bile acids (see, e.g., Chiang and Ferrel (2020) Liver Res. 4 (2): 47-63). […] Conversely, when bile acid levels reach high levels, this gene is actively down regulated. These changes are mediated by farnesoid X receptor (FXR), a sensor of bile acid levels, and the master regulator of intracellular bile acid concentrations. CYP7A1 mRNA can therefore be used as a surrogate for monitoring changes in hepatic bile acids in response to ASO treatment. Accordingly, an ASO that successfully increases ABCB11 expression would be expected to promote increased bile acid efflux, thus reducing bile acid levels in the cell. In a wild-type (non-disease) setting, this reduction promotes a compensatory increase in CYP7A1 to restore normal levels.

[2] = system: human ABCB11 mRNA; assay: ASO treatment of primary human hepatocytes (PHH), ABCB11 mRNA by RT-qPCR normalized to B2M; assay type: cell-based; parameters: ABCB11 mRNA, dose titration: unit of the concentration uncertain; details: for ABCB11 mRNA expression, dose response / ABCB11 mRNA, dose titration: PHHs; for ABCB11 mRNA expression, dose response: Day 4 after ASO treatment (FIG. 5A); for ABCB11 mRNA, dose titration: CO-3986 and CO-4529 tested at 2.5 (unit uncertain), 5 μM, and 10 μM; for ABCB11 FC mRNA (5 μM ASO vs. untreated): 5 μM ASO with PO-modifications, normalized to untreated hepatocytes
Summary of the method: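 ABCB11 mRNA was quantified by Taqman RT-qPCR relative to B2M and expressed as fold over untreated cells. Cells were cryopreserved primary human hepatocytes given ASO in Matrigel-supplemented medium 4 h after plating, at 1.25, 2.5, 5 or 10 μM (5 μM for screening), and harvested after 72 hrs.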

[3] = PHHs treated for two days, collected Day 2 to Day 7, result on Day 4

Substance | ABCB11 FC mRNA (5 μM ASO vs. untreated) ([2]; primary human hepatocytes) [fold change] | further results
CO-4513: ASO targeting a downstream regRNA from enhancer RR62_v2 (antisense eG*eT*eG*eA*eG*eG*e[5mC]*eA*eT*e[5mC]*eA*eG*eG*eT*eA*eA*eG*eT*eT*e[5mC]) | – | CYP7A1 mRNA levels, dose response [1]: dose-responsive increases; ABCB11 mRNA expression, dose response [2]: dose-responsive increase; ABCB11 mRNA FC (5 μM ASO vs. UNT) ([2]; primary human hepatocytes, 5 μM ASO, normalized to untreated PHHs (UNT)): 1.122 fold change
CO-4535: ASO targeting eRNA RR64 (RR64_v2) of human ABCB11 (antisense eT*eG*eG*e[5mC]*eG*eT*eT*eA*eT*eT*eA*eA*eT*eT*e[5mC]*eT*eA*e[5mC]*eA*eG) | – | expression of CYP7A1 mRNA, dose response [1]: increased expression of CYP7A1 mRNA in a dose-dependent manner; CYP7A1 mRNA, time course [1, 3]: strong ABCB11 and CYP7A1 mRNA upregulation; CYP7A1 mRNA levels, dose response [1]: dose-responsive increases; ABCB11 mRNA, time course [2, 3]: strong ABCB11 and CYP7A1 mRNA upregulation; ABCB11 mRNA expression, dose response [2]: dose-responsive increase; ABCB11 mRNA, dose titration [2]: dose-dependent increase
CO-4556: ASO targeting eRNA RR74 (RR74_v1) of human ABCB11 (antisense eG*eA*eA*eG*eG*eA*e[5mC]*eA*e[5mC]*eA*eA*eT*eT*eT*e[5mC]*eT*eG*eT*eA*eG) | – | expression of CYP7A1 mRNA, dose response [1]: increased expression of CYP7A1 mRNA in a dose-dependent manner; CYP7A1 mRNA levels, dose response [1]: dose-responsive increases; ABCB11 mRNA expression, dose response [2]: dose-responsive increase; ABCB11 mRNA, dose titration [2]: dose-dependent increase
CO-11223 (antisense eG*eT*lG*eGeAlGe[5mC]*eA*lA*eA*e[5mC]*lT*eA*eGlGe[5mC]eA*l[5mC]*eT*eG) | 1.80 | –
CO-11224 (antisense eG*eT*lGeGeAlGe[5mC]*eA*lA*eA*e[5mC]*lT*eA*eGlGe[5mC]eAl[5mC]*eT*eG) | 1.88 | –
CO-11225 (antisense eG*eTlGeGeAlGe[5mC]*eA*lA*eA*e[5mC]*lT*eA*eGlGe[5mC]eAl[5mC]eT*eG) | 1.66 | –
CO-11226 (antisense eG*eT*lGeG*eA*lG*e[5mC]*eAlA*eA*e[5mC]*lT*eAeG*lG*e[5mC]*eA*l[5mC]eT*eG) | 2.31 | –
CO-11227 (antisense eG*eT*lG*eGeA*lG*e[5mC]*eAlA*eA*e[5mC]*lTeA*eG*lG*e[5mC]eA*l[5mC]*eT*eG) | 2.11 | –
CO-11228 (antisense eG*eT*lG*eG*eAlG*e[5mC]*eA*lAeA*e[5mC]*lT*eAeG*lG*e[5mC]*eAl[5mC]*eT*eG) | 1.99 | –
CO-11229 (antisense eG*eTlG*eG*eA*lGe[5mC]*eA*lA*eAe[5mC]*lT*eA*eGlG*e[5mC]*eA*l[5mC]eT*eG) | 2.83 | –
CO-11230 (antisense eG*eTlG*eG*eAlG*e[5mC]*eAlA*eA*e[5mC]lT*eA*eGlG*e[5mC]*eAl[5mC]*eT*eG) | 1.63 | –
CO-11231 (antisense eG*eT*lGeG*eA*lGe[5mC]*eA*lAeA*e[5mC]*lTeA*eG*lGe[5mC]*eA*l[5mC]eT*eG) | 1.85 | –
CO-11232 (antisense eG*eT*lGeG*eAlG*e[5mC]eA*lAeA*e[5mC]lT*eAeG*lGe[5mC]*eAl[5mC]*eT*eG) | 1.72 | –
CO-11233 (antisense eG*eTlG*eGeA*lGe[5mC]*eAlA*eAe[5mC]*lTeA*eGlG*e[5mC]eA*l[5mC]eT*eG) | 1.60 | –
CO-11234 (antisense eG*eT*eG*eG*lAeGe[5mC]*eA*eA*lA*e[5mC]*eT*eA*eGlGe[5mC]*eA*e[5mC]*eT*eG) | 1.55 | –
CO-11235 (antisense eG*eT*eG*eGlAeGe[5mC]*eA*eA*lA*e[5mC]*eT*eA*eGlGe[5mC]eA*e[5mC]*eT*eG) | 1.47 | –
CO-11236 (antisense eG*eT*eGeGlAeGe[5mC]*eA*eA*lA*e[5mC]*eT*eA*eGlGe[5mC]eAe[5mC]*eT*eG) | 1.60 | –
CO-11237 (antisense eG*eTeGeGlAeGe[5mC]*eA*eA*lA*e[5mC]*eT*eA*eGlGe[5mC]eAe[5mC]eT*eG) | 1.56 | –
CO-11238 (antisense eG*eT*eGeG*lA*eG*e[5mC]*eAeA*lA*e[5mC]*eT*eAeG*lG*e[5mC]*eA*e[5mC]eT*eG) | 1.26 | –
